Source: the Kinase Knowledgebase extract (Sharma et al. 2016)

Legend:
[1] = biological target: PIK3CA (human) (UniProt P42336); assay: Assessment of PIK3CA Kinase Activity
[2] = biological target: PIK3CB (Human) (UniProt P42338); assay: Assessment of PIK3CB Kinase Activity
[3] = biological target: PIK3CG (human) (UniProt P48736); assay: Assessment of PIK3CG Kinase Activity
[4] = biological target: PIK3CD (Human) (UniProt O00329); assay: Assessment of PIK3CD Kinase Activity
Chain of PIK3CD (Human) (O00329 whole entry, looked up): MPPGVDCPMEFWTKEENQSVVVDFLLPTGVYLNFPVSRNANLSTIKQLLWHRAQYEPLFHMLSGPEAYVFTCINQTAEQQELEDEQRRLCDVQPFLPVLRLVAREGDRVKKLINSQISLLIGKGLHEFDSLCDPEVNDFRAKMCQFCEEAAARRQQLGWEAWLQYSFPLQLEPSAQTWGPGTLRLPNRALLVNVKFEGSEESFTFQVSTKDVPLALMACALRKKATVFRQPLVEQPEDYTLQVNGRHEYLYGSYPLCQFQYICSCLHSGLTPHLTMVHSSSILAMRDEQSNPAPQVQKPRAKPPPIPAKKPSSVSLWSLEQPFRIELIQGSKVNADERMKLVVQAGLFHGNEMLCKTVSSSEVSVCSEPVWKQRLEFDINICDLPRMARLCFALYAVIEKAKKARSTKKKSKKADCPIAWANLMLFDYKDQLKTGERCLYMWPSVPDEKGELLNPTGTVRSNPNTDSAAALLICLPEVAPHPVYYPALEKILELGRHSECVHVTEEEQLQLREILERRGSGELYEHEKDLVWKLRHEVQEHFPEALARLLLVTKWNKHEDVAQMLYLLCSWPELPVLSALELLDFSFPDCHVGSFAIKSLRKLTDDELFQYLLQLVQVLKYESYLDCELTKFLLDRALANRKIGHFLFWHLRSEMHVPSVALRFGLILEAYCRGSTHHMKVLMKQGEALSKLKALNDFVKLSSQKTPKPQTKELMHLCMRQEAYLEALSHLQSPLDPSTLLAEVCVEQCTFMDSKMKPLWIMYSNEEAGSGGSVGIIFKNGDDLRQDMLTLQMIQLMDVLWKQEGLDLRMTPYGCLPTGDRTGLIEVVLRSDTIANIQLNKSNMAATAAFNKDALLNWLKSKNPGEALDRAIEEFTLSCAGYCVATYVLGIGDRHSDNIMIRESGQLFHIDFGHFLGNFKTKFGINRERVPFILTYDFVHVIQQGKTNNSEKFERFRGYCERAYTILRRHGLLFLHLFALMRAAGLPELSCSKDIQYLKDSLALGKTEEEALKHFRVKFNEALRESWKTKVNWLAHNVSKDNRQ

Chain of PIK3CA (human) (P42336 whole entry, looked up): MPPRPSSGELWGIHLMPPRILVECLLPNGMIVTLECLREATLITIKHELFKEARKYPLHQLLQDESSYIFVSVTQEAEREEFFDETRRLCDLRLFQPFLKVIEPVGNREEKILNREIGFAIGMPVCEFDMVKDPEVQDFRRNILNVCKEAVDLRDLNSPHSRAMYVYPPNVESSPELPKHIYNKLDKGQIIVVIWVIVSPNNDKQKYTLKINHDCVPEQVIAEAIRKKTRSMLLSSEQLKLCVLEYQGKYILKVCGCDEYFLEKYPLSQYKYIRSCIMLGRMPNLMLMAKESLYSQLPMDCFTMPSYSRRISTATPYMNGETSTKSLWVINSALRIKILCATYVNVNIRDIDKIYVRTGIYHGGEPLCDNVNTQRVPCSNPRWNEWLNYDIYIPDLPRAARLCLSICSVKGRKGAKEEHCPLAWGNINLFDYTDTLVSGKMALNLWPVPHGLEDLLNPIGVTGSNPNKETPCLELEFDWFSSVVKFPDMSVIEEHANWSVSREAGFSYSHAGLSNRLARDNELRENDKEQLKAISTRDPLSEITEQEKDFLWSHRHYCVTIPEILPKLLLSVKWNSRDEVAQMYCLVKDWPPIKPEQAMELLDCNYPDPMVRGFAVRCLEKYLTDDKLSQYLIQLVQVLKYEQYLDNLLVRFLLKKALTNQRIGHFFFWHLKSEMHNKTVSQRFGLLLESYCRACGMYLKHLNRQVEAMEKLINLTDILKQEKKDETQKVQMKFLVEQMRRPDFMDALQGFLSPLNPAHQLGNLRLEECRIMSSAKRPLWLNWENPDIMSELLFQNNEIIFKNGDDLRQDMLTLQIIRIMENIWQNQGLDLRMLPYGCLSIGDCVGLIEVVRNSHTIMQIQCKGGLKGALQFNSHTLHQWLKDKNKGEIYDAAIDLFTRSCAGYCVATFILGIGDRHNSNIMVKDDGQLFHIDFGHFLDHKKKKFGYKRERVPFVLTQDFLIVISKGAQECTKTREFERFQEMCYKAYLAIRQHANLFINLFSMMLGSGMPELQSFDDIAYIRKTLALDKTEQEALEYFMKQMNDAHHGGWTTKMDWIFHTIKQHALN
Chain of PIK3CB (Human) (P42338 whole entry, looked up): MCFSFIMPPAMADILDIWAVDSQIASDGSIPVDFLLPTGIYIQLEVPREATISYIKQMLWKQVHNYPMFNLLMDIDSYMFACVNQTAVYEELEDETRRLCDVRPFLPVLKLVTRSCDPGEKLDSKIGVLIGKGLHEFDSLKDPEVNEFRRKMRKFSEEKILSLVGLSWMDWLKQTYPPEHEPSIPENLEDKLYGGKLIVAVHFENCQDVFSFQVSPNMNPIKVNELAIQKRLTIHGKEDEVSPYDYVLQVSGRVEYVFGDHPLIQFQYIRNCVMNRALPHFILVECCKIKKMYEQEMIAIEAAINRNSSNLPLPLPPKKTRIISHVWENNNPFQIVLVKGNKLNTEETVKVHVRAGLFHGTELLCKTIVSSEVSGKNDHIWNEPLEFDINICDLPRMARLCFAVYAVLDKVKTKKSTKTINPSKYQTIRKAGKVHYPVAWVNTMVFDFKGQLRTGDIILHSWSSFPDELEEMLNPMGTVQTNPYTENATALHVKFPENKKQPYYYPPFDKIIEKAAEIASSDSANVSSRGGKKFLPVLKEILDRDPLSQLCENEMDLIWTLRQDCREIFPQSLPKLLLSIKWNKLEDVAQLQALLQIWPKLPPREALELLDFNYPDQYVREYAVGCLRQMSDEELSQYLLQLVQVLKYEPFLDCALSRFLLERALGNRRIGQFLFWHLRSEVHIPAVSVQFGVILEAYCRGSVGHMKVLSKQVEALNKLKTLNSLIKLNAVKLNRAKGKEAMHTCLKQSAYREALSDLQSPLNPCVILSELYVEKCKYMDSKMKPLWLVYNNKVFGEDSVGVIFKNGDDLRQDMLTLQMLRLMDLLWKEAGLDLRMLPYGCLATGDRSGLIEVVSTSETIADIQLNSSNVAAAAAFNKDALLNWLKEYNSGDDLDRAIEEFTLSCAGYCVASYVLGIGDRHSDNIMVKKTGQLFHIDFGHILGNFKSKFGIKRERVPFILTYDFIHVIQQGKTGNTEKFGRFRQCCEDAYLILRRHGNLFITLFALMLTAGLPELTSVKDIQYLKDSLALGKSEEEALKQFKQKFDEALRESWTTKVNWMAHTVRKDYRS
Chain of PIK3CG (human) (P48736 whole entry, looked up): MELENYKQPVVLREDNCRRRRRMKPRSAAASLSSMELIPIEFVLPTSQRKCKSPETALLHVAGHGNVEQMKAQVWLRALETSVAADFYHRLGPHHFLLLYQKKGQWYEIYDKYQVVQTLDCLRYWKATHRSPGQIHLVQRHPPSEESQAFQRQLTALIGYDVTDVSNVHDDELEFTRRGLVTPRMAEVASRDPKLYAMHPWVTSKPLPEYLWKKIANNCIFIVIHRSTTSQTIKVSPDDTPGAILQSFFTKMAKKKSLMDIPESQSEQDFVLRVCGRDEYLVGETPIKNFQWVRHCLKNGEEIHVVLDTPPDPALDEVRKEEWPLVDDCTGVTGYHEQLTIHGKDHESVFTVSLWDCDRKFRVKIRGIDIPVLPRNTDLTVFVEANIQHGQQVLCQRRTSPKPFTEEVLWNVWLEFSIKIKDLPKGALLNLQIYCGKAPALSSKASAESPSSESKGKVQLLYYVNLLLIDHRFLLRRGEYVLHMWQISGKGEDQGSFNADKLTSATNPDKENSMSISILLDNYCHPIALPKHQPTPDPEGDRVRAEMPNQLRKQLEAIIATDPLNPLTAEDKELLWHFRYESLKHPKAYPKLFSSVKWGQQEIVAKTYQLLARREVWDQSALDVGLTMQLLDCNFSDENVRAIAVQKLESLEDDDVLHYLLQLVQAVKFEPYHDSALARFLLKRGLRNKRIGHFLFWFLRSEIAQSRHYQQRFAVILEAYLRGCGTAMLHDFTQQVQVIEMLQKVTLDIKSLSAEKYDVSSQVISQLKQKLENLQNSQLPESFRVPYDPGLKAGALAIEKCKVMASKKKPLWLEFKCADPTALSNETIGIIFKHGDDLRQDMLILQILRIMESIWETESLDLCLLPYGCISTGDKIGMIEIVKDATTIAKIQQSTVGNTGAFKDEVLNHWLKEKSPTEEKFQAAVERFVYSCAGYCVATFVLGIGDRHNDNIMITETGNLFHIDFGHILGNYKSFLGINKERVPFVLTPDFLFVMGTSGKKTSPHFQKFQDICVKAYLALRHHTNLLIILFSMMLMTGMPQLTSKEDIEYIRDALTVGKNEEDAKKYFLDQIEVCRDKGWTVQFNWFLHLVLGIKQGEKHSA

COC(=O)N1Cc2nc(-c3ccc(NC(=O)NCCF)cc3F)nc(N3CCOCC3)c2C1
IC50 [1]: > 10 µM | IC50 [2]: > 10 µM | IC50 [3]: > 10 µM | IC50 [4]: > 10 µM

COCCCNC(=O)Nc1ccc(-c2nc3c(c(N4CCOC[C@@H]4C)n2)CN(C)C3)cc1
IC50 [4]: > 10 µM

C[C@H]1COCCN1c1nc(-c2ccc(NC(=O)NC3CCC3)cc2)nc2c1CN(C)C2
IC50 [4]: > 10 µM

C[C@H]1COCCN1c1nc(-c2ccc(NC(=O)NCCCO)cc2)nc2c1CN(C)C2
IC50 [4]: > 10 µM

C[C@H]1COCCN1c1nc(-c2ccc(NC(=O)NCCN(C)C)cc2)nc2c1CN(C)C2
IC50 [1]: 0.1 to 1 µM | IC50 [2]: 0.1 to 1 µM | IC50 [4]: 0.1 to 1 µM
